Laboratory results taken from US10932465B2, “Antimicrobial mixture containing 4-(3-ethoxy-4-hydroxyphenyl)butan-2-one and a diol, and cosmetic composition containing same” (L'OREAL, priority 2017, dated 2021).
Counter-ions that a name gives are not always drawn. Blank lines part the entries; values can stand above or below the molecule they belong to.

Tests used:
[1] = test system: Aspergillus niger ATCC 6275; assay: MIC / microbial growth test, 96-well microplate, optical density at 620 nm, with FIC index; assay type: cell-based
Text: FIC Index=([…]) with: • MICa with B: minimum concentration of product A in the combination A+B which makes it possible to obtain an inhibitory effect • MICb with A: minimum concentration of product B in the combination A+B which makes it possible to obtain an inhibitory effect. • MICa: minimum inhibitory concentration of product A alone. • MICb: minimum inhibitory concentration of product B alone. […] As regards the combinations tested, MICa with b and MICb with a are the respective concentrations of A and of B in the combinations which make it possible to obtain a microbial growth percentage of less than or equal to 25%. When the FIC index value is less than or equal to 1, it is considered that the combination of test compounds has a synergistic effect. The combinations of compounds A and B were tested on the following strains: Aspergillus niger and Candida albicans. […] A 96-well microplate and an incubation temperature of 32.5° C. are used. The incubation time of the microplate is: • from 24 hours to 48 hours aerobically for Aspergillus niger, • from 18 hours to 24 hours aerobically for Candida albicans. A 10% (weight/volume) stock solution was prepared by mixing 1 g of compound in 9 ml of aqueous 1%o agar solution. […] 50 μL of each of the daughter solutions obtained containing compound A or B1 or B2 are added to the microplate wells. 100 μL of Sabouraud liquid nutrient broth seeded with the strain Aspergillus niger and 50 μL of aqueous 1%o agar solution are also added thereto. 50 μL of each of the daughter solutions obtained containing compound A and 50 μL of each of the daughter solutions obtained containing compound B1 or B2 are added to the microplate wells. 100 μL of Sabouraud liquid nutrient broth seeded at double concentration with the strain Aspergillus niger are also added thereto. A positive microbial growth control was also prepared. […] This control corresponds to 100 μL of double concentration sterile Sabouraud liquid nutrient broth+100 μL of double concentration compound A or B1 or B2. […] In the two cases (test and control), the inoculum represents the concentration of the strain Aspergillus niger present in the final volume of the wells (200 μL) and is between 2 and 6×10^5 cfu/ml of Aspergillus niger.

[2] = test system: Candida albicans ATCC 10231; assay: as above; assay type: cell-based
Text: FIC Index=([…]) with: • MICa with B: minimum concentration of product A in the combination A+B which makes it possible to obtain an inhibitory effect • MICb with A: minimum concentration of product B in the combination A+B which makes it possible to obtain an inhibitory effect. • MICa: minimum inhibitory concentration of product A alone. • MICb: minimum inhibitory concentration of product B alone. […] As regards the combinations tested, MICa with b and MICb with a are the respective concentrations of A and of B in the combinations which make it possible to obtain a microbial growth percentage of less than or equal to 25%. When the FIC index value is less than or equal to 1, it is considered that the combination of test compounds has a synergistic effect. The combinations of compounds A and B were tested on the following strains: Aspergillus niger and Candida albicans. […] A 96-well microplate and an incubation temperature of 32.5° C. are used. The incubation time of the microplate is: • from 24 hours to 48 hours aerobically for Aspergillus niger, • from 18 hours to 24 hours aerobically for Candida albicans. A 10% (weight/volume) stock solution was prepared by mixing 1 g of compound in 9 ml of aqueous 1%o agar solution. […] 50 μL of each of the daughter solutions obtained containing compound A or B1 or B2 are added to the microplate wells. 100 μL of Sabouraud liquid nutrient broth seeded with the strain Aspergillus niger and 50 μL of aqueous 1%o agar solution are also added thereto. 50 μL of each of the daughter solutions obtained containing compound A and 50 μL of each of the daughter solutions obtained containing compound B1 or B2 are added to the microplate wells. 100 μL of Sabouraud liquid nutrient broth seeded at double concentration with the strain Aspergillus niger are also added thereto. A positive microbial growth control was also prepared. […] This control corresponds to 100 μL of double concentration sterile Sabouraud liquid nutrient broth+100 μL of double concentration compound A or B1 or B2.

[3] = Aspergillus niger, growth <= 25%
[4] = Candida albicans, growth <= 25%

% MIC of B1 alone [1, 3]: 0.01%
% MIC of B1 alone [2, 4]: 0.001%
SMILES: N=C(NCCCCCCNC(=N)NC(=N)Nc1ccc(Cl)cc1)NC(=N)Nc1ccc(Cl)cc1.O=C(O)[C@H](O)[C@@H](O)[C@H](O)[C@H](O)CO.O=C(O)[C@H](O)[C@@H](O)[C@H](O)[C@H](O)CO [B1, chlorhexidine digluconate, reference compound]
microbial growth percentage ([1]; 0 A + 0.0025 B1 (weight %)): 98%
microbial growth percentage ([1]; 0 A + 0.005 B1 (weight %)): 98%
microbial growth percentage ([1]; 0 A + 0.01 B1 (weight %)): 7%
microbial growth percentage ([2]; 0 A + 0.00025 B1 (weight %)): 59%
microbial growth percentage ([2]; 0 A + 0.0005 B1 (weight %)): 32%
microbial growth percentage ([2]; 0 A + 0.001 B1 (weight %)): 3%

% MIC of A alone ([1]; Aspergillus niger, series with B1, growth <= 25%): 0.25%
% MIC of A alone ([1]; Aspergillus niger, series with B2, growth <= 25%): 0.4%
% MIC of A alone ([1]; Aspergillus niger, series with B3, growth <= 25%): 0.25%
% MIC of A alone ([2]; Candida albicans, series with B1, growth <= 25%): 0.1%
SMILES: CCOc1cc(CCC(C)=O)ccc1O [A, 4-(3-ethoxy-4-hydroxyphenyl)butan-2-one]
microbial growth percentage ([1]; 0.025 A + 0 B2 (weight %)): 228%
microbial growth percentage ([1]; 0.05 A + 0 B2 (weight %)): 109%
microbial growth percentage ([1]; 0.0625 A + 0 B1 (weight %)): 83%
microbial growth percentage ([1]; 0.0625 A + 0 B3 (weight %)): 85%
microbial growth percentage ([1]; 0.1 A + 0 B2 (weight %)): 73%
microbial growth percentage ([1]; 0.125 A + 0 B1 (weight %)): 49%
microbial growth percentage ([1]; 0.125 A + 0 B3 (weight %)): 48%
microbial growth percentage ([1]; 0.2 A + 0 B2 (weight %)): 72%
microbial growth percentage ([1]; 0.25 A + 0 B1 (weight %)): 5%
microbial growth percentage ([1]; 0.25 A + 0 B3 (weight %)): 7%
microbial growth percentage ([1]; 0.4 A + 0 B2 (weight %)): 6%
microbial growth percentage ([2]; 0.025 A + 0 B1 (weight %)): 63%
microbial growth percentage ([2]; 0.025 A + 0 B2 (weight %)): 83%
microbial growth percentage ([2]; 0.05 A + 0 B1 (weight %)): 47%
microbial growth percentage ([2]; 0.05 A + 0 B2 (weight %)): 70%
microbial growth percentage ([2]; 0.1 A + 0 B1 (weight %)): 22%
microbial growth percentage ([2]; 0.1 A + 0 B2 (weight %)): 50%
microbial growth percentage ([2]; 0.2 A + 0 B2 (weight %)): 10%

% MIC of B2 alone [1, 3]: 0.02%
% MIC of B2 alone [2, 4]: 0.001%
SMILES: [H]/N=C(\N/C(=N/[H])NCCCCCCNC(=N)NC(=N)Nc1ccc(Cl)cc1)Nc1ccc(Cl)cc1 [B2, chlorhexidine hydrochloride, reference compound]
microbial growth percentage ([1]; 0 A + 0.025 B2 (weight %)): 194%
microbial growth percentage ([1]; 0 A + 0.05 B2 (weight %)): 121%
microbial growth percentage ([1]; 0 A + 0.1 B2 (weight %)): 137%
microbial growth percentage ([1]; 0 A + 0.2 B2 (weight %)): 2%
microbial growth percentage ([2]; 0 A + 0.00025 B2 (weight %)): 82%
microbial growth percentage ([2]; 0 A + 0.0005 B2 (weight %)): 64%
microbial growth percentage ([2]; 0 A + 0.001 B2 (weight %)): 14%
